Laboratory results: ChEMBL document CHEMBL2406999, “Vialinin A is a ubiquitin-specific peptidase inhibitor” (Bioorg Med Chem Lett, 2013)
Calls of active or inactive are those of the source.

What was measured:
[1] = target: Cathepsin B (Homo sapiens) (UniProt P07858); assay: Inhibition of cathepsin B (unknown origin) at 6.3 uM after 20 mins by fluorometric analysis
[2] = target: T1, Ubiquitin carboxyl-terminal hydrolase 8 (Homo sapiens) (UniProt P40818); assay: Inhibition of human USP8 using Ub-AMC as substrate at 1 to 30 uM after 60 mins by fluorometric analysis
T1 sequence (whole entry): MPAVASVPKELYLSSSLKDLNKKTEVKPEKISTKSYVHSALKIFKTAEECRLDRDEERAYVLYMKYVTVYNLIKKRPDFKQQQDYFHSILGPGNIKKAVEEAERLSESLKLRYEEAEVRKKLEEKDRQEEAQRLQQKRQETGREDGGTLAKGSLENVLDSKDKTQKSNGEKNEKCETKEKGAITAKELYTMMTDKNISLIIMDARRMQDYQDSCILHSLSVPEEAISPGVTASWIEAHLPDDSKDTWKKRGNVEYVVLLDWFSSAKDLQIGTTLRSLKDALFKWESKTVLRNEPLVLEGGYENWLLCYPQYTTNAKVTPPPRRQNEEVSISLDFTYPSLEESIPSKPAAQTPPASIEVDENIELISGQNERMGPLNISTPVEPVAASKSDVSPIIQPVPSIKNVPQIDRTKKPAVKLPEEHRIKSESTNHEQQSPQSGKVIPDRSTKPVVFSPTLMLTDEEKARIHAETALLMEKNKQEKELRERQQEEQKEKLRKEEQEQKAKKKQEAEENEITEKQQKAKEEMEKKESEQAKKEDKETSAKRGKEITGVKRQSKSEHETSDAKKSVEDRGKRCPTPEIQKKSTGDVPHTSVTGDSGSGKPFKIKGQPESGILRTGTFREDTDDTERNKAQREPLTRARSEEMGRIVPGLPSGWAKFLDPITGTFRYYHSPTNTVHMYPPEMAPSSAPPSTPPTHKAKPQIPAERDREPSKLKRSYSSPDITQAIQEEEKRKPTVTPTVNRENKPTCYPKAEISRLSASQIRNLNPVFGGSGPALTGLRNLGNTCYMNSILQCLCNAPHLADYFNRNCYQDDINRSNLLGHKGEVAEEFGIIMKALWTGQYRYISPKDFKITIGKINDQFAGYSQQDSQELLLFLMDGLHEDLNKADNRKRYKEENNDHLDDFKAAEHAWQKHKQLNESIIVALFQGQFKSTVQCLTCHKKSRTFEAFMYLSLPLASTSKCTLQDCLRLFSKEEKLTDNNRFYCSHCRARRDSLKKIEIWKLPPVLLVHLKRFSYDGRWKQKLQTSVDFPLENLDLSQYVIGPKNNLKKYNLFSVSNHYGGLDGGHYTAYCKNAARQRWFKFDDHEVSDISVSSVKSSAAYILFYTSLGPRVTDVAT

[3] = target: T2, Ubiquitin carboxyl-terminal hydrolase 2 (Homo sapiens) (UniProt O75604); assay: Inhibition of human USP2 using Ub-AMC as substrate at 1 to 30 uM after 60 mins by fluorometric analysis
T2 sequence (whole entry): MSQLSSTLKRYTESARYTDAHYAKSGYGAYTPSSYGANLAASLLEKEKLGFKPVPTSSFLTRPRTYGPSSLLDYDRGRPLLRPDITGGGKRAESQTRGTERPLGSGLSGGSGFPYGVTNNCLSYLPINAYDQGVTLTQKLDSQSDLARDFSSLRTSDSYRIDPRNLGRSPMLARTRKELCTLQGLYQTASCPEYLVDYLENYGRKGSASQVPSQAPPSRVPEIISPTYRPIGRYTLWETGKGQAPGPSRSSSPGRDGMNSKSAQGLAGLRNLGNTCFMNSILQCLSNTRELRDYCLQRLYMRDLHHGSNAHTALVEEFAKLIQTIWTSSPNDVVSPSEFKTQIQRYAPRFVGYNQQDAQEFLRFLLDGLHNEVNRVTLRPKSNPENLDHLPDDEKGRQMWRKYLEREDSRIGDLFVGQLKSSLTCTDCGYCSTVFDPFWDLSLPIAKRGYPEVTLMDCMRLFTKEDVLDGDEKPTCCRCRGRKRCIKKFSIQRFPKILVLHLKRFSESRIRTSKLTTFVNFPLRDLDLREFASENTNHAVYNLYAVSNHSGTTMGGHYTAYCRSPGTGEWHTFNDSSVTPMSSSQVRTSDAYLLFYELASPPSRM

[4] = test system: T3, Ubiquitin carboxyl-terminal hydrolase 5 (Homo sapiens), P45974 [H818A]; assay: Competitive binding affinity to human USP5 H818A mutant by SDS-PAGE analysis in presence of biotin-DMT
T3 sequence (whole entry): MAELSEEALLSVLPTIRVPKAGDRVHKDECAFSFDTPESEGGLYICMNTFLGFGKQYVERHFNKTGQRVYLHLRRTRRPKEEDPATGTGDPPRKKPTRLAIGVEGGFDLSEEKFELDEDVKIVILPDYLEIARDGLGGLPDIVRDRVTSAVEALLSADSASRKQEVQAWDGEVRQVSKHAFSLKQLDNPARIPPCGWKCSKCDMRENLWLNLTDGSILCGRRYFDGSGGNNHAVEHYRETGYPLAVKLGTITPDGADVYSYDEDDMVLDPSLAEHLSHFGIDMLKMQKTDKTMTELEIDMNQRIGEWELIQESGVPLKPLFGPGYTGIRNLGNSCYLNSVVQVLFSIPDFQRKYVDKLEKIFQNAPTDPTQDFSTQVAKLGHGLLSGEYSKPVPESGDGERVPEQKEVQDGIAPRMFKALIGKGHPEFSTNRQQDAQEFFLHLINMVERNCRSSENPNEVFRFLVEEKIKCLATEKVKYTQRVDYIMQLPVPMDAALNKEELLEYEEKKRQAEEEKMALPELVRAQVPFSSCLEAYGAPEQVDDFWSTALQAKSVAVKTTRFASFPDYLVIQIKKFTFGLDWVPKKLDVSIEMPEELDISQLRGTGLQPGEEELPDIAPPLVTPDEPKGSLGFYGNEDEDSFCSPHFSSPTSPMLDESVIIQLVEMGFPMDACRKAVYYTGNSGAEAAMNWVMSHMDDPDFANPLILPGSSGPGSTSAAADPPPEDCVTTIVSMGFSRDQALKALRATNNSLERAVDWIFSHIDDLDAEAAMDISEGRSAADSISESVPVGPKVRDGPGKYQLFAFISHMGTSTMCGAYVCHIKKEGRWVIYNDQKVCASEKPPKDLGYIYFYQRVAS

O=C(Cc1ccccc1)Oc1c(OC(=O)Cc2ccccc2)c(-c2ccc(O)cc2)c(O)c(O)c1-c1ccc(O)cc1 [VIALININ A]
inactive: inhibition [1] | inhibition [2] | inhibition [3] | Activity [4]
